We go through 31 compounds from patent publication US9585891B2 (MERCK PATENT GMBH, priority 2012, dated 2017).

SMILES strings stand for the structures. Where only a bound is given, the exact number is not on record here.

As a reminder, the IC50 is the midpoint of a concentration-inhibition curve.

This experiment concerns the target T1, Human recombinant Vanin-1 (VNN1) (Homo sapiens, UniProt O95497).
T1 construct: purchased Sino Biological Inc. 11662-H08H
T1 sequence (O95497 22-491): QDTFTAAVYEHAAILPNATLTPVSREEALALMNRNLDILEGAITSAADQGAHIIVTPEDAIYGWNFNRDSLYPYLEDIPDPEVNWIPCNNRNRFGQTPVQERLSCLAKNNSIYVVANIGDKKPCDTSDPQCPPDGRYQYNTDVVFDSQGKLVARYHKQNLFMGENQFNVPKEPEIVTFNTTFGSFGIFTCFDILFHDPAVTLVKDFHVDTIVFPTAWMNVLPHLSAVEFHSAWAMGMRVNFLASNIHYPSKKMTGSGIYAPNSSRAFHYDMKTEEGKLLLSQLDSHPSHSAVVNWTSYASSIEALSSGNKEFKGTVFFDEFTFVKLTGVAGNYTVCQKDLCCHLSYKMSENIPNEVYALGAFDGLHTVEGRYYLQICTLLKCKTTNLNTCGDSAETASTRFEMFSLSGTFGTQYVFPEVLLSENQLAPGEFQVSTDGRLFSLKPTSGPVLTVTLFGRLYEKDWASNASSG
Briefly: Vanin-1 enzymatic assay (fluorescence intensity, Pantothenate-AMC substrate). The experiment is classed as biochemical. The conditions noted are these: purified recombinant human Vanin-1 0.5 nM; 30 min preincubation at 30° C.; Pantothenate-AMC 30 μM, 60 min. The procedure: Human recombinant Vanin-1 (VNN1) was purchased from Sino Biological Inc. (Catalog Number: 11662-H08H).
Measurement of VNN1 inhibition is performed in 384-well format based on fluorescence intensity assay. Purified recombinant human Vanin-1 (0.5 nM) and threefold serial diluted compounds in 3% DMSO (range of concentrations from 30 μM to 1.524 nM) or controls (3.0% DMSO) are incubated for 30 minutes at 30° C. with gentle agitation in assay buffer containing 100 mM potassium Phosphate Buffer (KPi), pH 7.5, 0.001% Bovine Serum Albumin (BSA), 0.5 mM dithiothreitol (DTT) and 0.0025% Brij-35. The reaction is initiated by the addition of the fluorogenic substrate, Pantothenate-AMC, at a concentration of 30 μM. After 60 minutes of incubation at 30° C. with gentle agitation, fluorescence intensity is measured at λex=350 nm and λem=450 nm with a fluorescence reader (BMG PHERAstar reader or equivalent).
Take `CC(=O)CCNC(=O)[C@H](O)C(C)(C)CO` [Example 1, (R)-2,4-Dihydroxy-3,3-dimethyl-N-(3-oxo-butyl)-butyramide]: the IC50 is 5370 nM. As for `CCC(=O)CCNC(=O)[C@H](O)C(C)(C)CO` [Example 2, (R)-2,4-Dihydroxy-3,3-dimethyl-N-(3-oxo-pentyl)-butyramide], the figure is 20500 nM; as for `CC(C)(CO)[C@@H](O)C(=O)NCCC(=O)C(=O)NCCc1ccccc1` [Example 12, (R)-2,4-Dihydroxy-3,3-dimethyl-N-(3-oxo-3-phenethylcarbamoyl-propyl)-butyramide], 90 nM; as for `CC(C)(CO)[C@H](O)C(=O)NCCC(=O)C(=O)NCc1ccccc1` [Example 13, (S)—N-(3-Benzylcarbamoyl-3-oxo-propyl)-2,4-dihydroxy-3,3-dimethyl-butyramide], 460 nM. As for `CC(C)(CO)[C@@H](O)C(=O)NCCC(=O)C(=O)Nc1ccccc1` [Example 16, (R)-2,4-Dihydroxy-3,3-dimethyl-N-(3-oxo-3-phenylcarbamoyl-propyl)-butyramide], the figure is 8320 nM; as for `CC(C)(CO)[C@@H](O)C(=O)NCCC(=O)C(=O)NC1CCCCC1` [Example 18, (R)—N-(3-Cyclohexylcarbamoyl-3-oxo-propyl)-2,4-dihydroxy-3,3-dimethyl butyramide], 3350 nM. In the case of `CC(NC(=O)C(=O)CCNC(=O)[C@H](O)C(C)(C)CO)c1ccccc1` (stereo partly shown) [Example 20] it was 3030 nM; in that of `CC(C)(CO)[C@@H](O)C(=O)NCCC(=O)C(=O)NC(c1ccccc1)c1ccccc1` [Example 21, (R)—N-[3-(Benzhythyl-carbamoyl)-3-oxo-propyl]-2,4-dihydroxy-3,3-dimethyl-butyramide], 11500 nM.

As to `COC(=O)CNC(=O)C(=O)CCNC(=O)[C@H](O)C(C)(C)CO` [Example 25, [4-((R)-2,4-Dihydroxy-3,3-dimethyl-butyrylamino)-2-oxo-butyrylamino]-acetic acid methyl ester], the IC50 was 2320 nM. As for `CN(Cc1ccccc1)C(=O)C(=O)CCNC(=O)[C@H](O)C(C)(C)CO` [Example 27], the figure is 9730 nM; as for `CC(C)(CO)[C@@H](O)C(=O)NCCC(=O)C(=O)NCC1CCCO1` (stereo partly drawn) [Example 29, (R)-2,4-Dihydroxy-3,3-dimethyl-N-(3-oxo-3-[(tetrahydro-furan-2-ylmethyl)-carbamoyl]-propyl)-butyramide], 700 nM; as for `CC(C)(CO)[C@@H](O)C(=O)NCCC(=O)C(=O)NCCc1ccc(S(C)(=O)=O)cc1` [Example 30, (R)-2,4-Dihydroxy-N-{3-[2-(4-methanesulfonyl-phenyl)-ethylcarbamoyl]-3-oxo-propyl}-3,3-dimethyl-butyramide], 30 nM. As for `CC(C)(CO)[C@@H](O)C(=O)NCCC(=O)C(=O)NCC1CCN(S(=O)(=O)c2ccccc2)CC1` [Example 34, (R)—N-(3-[(1-Benzenesulfonyl-piperidin-4-ylmethyl)-carbamoyl]-3-oxo-propyl)-2,4-dihydroxy-3,3-dimethyl-butyramide], the figure is 20 nM. With `CC(C)(CO)[C@@H](O)C(=O)NCCC(=O)C(=O)NCCCc1ccc(S(=O)(=O)N2CCCCC2)cc1` [Example 35, (R)-2,4-Dihydroxy-3,3-dimethyl-N-(3-oxo-3-{3-[4-(piperidine-1-sulfonyl)-phenyl]-propylcarbamoyl}-propyl)-butyramide], the IC50 is 70 nM. As for `CC(C)(CO)[C@@H](O)C(=O)NCCC(=O)C(=O)NCc1cccc(S(=O)(=O)N2CCCCC2)c1` [Example 36, (R)-2,4-Dihydroxy-3,3-dimethyl-N-{3-oxo-3-[3-(piperidine-1-sulfonyl)-benzylcarbamoyl}-propyl)-butyramide], the figure is 170 nM; as for `CC(C)(CO)[C@@H](O)C(=O)NCCC(=O)C(=O)NCc1ccc(Oc2ccncc2)cc1` [Example 37, (R)-2,4-Dihydroxy-3,3-dimethyl-N-{3-oxo-3-[4-(pyridin-4-yloxy)-benzylcarbamoyl]-propyl}-butyramide], 10 nM. As for `CC(C)(CO)[C@@H](O)C(=O)NCCC(=O)C(=O)NCC1CCN(S(=O)(=O)c2ccc(-c3ccccc3)cc2)CC1` [Example 38, (R)—N-(3-{[1-(Biphenyl-4-sulfonyl)-piperidin-4-ylmethyl]-carbamoyl}-3-oxo-propyl)-2,4-dihydroxy-3,3-dimethyl-butyramide], the figure is less than 10 nM; as for `CC(C)(CO)[C@@H](O)C(=O)NCCC(=O)C(=O)NCCCN1CCOCC1=O` [Example 40, (R)-2,4-Dihydroxy-3,3-dimethyl-N-{3-oxo-3-[3-(3-oxo-morpholin-4-yl)-propylcarbamoyl}-propyl)butyramide], 400 nM.

As to `CC(C)(CO)[C@@H](O)C(=O)NCCC(=O)C(=O)NCc1ccc(N2CCOCC2)cc1` [Example 41, (R)-2,4-Dihydroxy-3,3-dimethyl-N-[3-(4-morpholin-4-yl-benzylcarbamoyl)-3-oxo-propyl]-butyramide], the IC50 came to 10 nM. As for `CC(C)(CO)[C@@H](O)C(=O)NCCC(=O)C(=O)NCCOc1ccccc1` [Example 42, (R)-2,4-Dihydroxy-3,3-dimethyl-N-[3-oxo-3-(2-phenoxy-ethylcarbamoyl)-propyl]-butyramide], the IC50 was 340 nM. `CC(C)(CO)[C@@H](O)C(=O)NCCC(=O)C(=O)N1CCC(Nc2cccc(S(=O)(=O)C(F)(F)F)c2)CC1` [Example 43, (R)—N-{3,4-Dioxo-4-[4-(3-trifluoromethanesulfonyl-phenylamino)-piperidin-1-yl]-butyl}-2,4-dihydroxy-3,3-dimethyl-butyramide]: the IC50 was determined as 12600 nM.

For `CC(C)(CO)[C@@H](O)C(=O)NCCC(=O)C(=O)NCc1ccc(OCCN2CCOCC2)cc1` [Example 44, (R)-2,4-Dihydroxy-3,3-dimethyl-N-(3-[4-(2-morpholin-4-yl-ethoxy)-benzylcarbamoyl]-3-oxo-propyl)-butyramide], the IC50 was determined as 50 nM. As for `CCOC(=O)c1ccc(CNC(=O)C(=O)CCNC(=O)[C@H](O)C(C)(C)CO)cc1` [Example 45, 4-{[4-((R)-2,4-Dihydroxy-3,3-dimethyl-butyrylamino)-2-oxo-butyrylamino]-methyl}-benzoic acid ethyl ester], the figure is 20 nM; as for `CC(C)(CO)[C@@H](O)C(=O)NCCC(=O)C(=O)NCC1CCN(S(=O)(=O)c2ccc(N3CCCC3=O)cc2)CC1` [Example 46, (R)-2,4-Dihydroxy-3,3-dimethyl-N-[3-oxo-3-({1-[4-(2-oxo-pyrrolidin-1-yl)-benzenesulfonyl]-piperidin-4-ylmethyl}-carbamoyl)-propyl]-butyramide], less than 10 nM. In the case of `CC(C)(CO)[C@@H](O)C(=O)NCCC(=O)C(=O)NCC1CCN(S(C)(=O)=O)CC1` [Example 47, (R)-2,4-Dihydroxy-N-(3-[(1-methanesulfonyl-piperidin-4-ylmethyl)-carbamoyl]-3-oxo-propyl)-3,3-dimethyl-butyramide] it was 20 nM. As for `CC(=O)N1CCC(CNC(=O)C(=O)CCNC(=O)[C@H](O)C(C)(C)CO)CC1` [Example 48, (R)—N-(3-[(1-Acetyl-piperidin-4-ylmethyl)-carbamoyl]-3-oxo-propyl)-2,4-dihydroxy-3,3-dimethyl-butyramide], the half-maximal inhibitory concentration (IC50) stood at 110 nM. As for `CC(C)(CO)[C@@H](O)C(=O)NCCC(=O)C(=O)N1CCOCC1` [Example 49, (R)-2,4-Dihydroxy-3,3-dimethyl-N-(4-morpholin-4-yl-3,4-dioxo-butyl)-butyramide], the figure is 23000 nM.

Take `COCCOc1ccc(CNC(=O)C(=O)CCNC(=O)[C@H](O)C(C)(C)CO)cc1` [Example 50, (R)-2,4-Dihydroxy-N-(3-[4-(2-methoxy-ethoxy)-benzylcarbamoyl]-3-oxo-propyl)-3,3-dimethyl-butyramide]: the IC50 was found to be 30 nM. In the case of `CC(C)(CO)[C@@H](O)C(=O)NCCC(=O)C(=O)NCC1CCN(S(=O)(=O)c2cccc(F)c2)CC1` [Example 51, (R)—N-(3-{[1-(3-Fluoro-benzenesulfonyl)-piperidin-4-ylmethyl]-carbamoyl}-3-oxo-propyl)-2,4-dihydroxy-3,3-dimethyl-butyramide] it was 20 nM; in that of `CC(C)(CO)[C@@H](O)C(=O)NCCC(=O)C(=O)NCC1CCN(S(=O)(=O)Cc2cccc(F)c2)CC1` [Example 52, (R)—N-(3-{[1-(3-Fluoro-phenylmethanesulfonyl)-piperidin-4-ylmethyl]-carbamoyl}-3-oxo-propyl)-2,4-dihydroxy-3,3-dimethyl-butyramide], 50 nM. Take `CC(C)(CO)[C@@H](O)C(=O)NCCC(=O)C(=O)NCc1ccc(-c2ccc(S(C)(=O)=O)cc2)cc1` [Example 53, (R)-2,4-Dihydroxy-N-{3-[(4′-methanesulfonyl-biphenyl-4-ylmethyl)-carbamoyl]-3-oxo-propyl}-3,3-dimethyl-butyramide]: the IC50 was determined as 10 nM.
